Experimental data as given in the NIST ThermoML archive (doi:10.1021/je700294p).

Columns and labels:
[1] = xn = mol fraction of the nth substance listed; conditions: 101 kPa, Liquid
[2] = excess molar enthalpy (molar enthalpy of mixing); xn = mol fraction of the nth substance listed; conditions: 101 kPa, Liquid
[3] = 101.33 kPa, Liquid
[4] = refractive index (Na D-line) (dimensionless); conditions: 101.33 kPa, Liquid, Standard Abbe refractometry

CCCC[n+]1cccc(C)c1.F[B-](F)(F)F [1-butyl-3-methylpyridinium tetrafluoroborate] + CCCO
Conditions	excess molar enthalpy [kJ/mol]	mass density [kg/m3]
[1], 298.15 K, x1 = 0.016	–	816.7
[1], 298.15 K, x1 = 0.4528	–	1066.5
[1], 298.15 K, x1 = 0.494	–	1079.3
[1], 298.15 K, x1 = 0.5262	–	1088.6
[1], 298.15 K, x1 = 0.5959	–	1106.9
[1], 298.15 K, x1 = 0.6934	–	1129.5
[1], 298.15 K, x1 = 0.7543	–	1141.9
[1], 298.15 K, x1 = 0.7993	–	1150.4
[1], 298.15 K, x1 = 0.8582	–	1160.4
[1], 298.15 K, x1 = 0.8962	–	1166.6
[1], 318.15 K, x1 = 0.0143	–	798.4
[1], 318.15 K, x1 = 0.0249	–	808.8
[1], 318.15 K, x1 = 0.0477	–	830.6
[1], 318.15 K, x1 = 0.1003	–	873.4
[1], 318.15 K, x1 = 0.1222	–	890.6
[1], 318.15 K, x1 = 0.1492	–	909.3
[1], 318.15 K, x1 = 0.2	–	940.8
[1], 318.15 K, x1 = 0.2295	–	957.5
[1], 318.15 K, x1 = 0.3112	–	997.8
[1], 318.15 K, x1 = 0.4002	–	1033.6
[1], 318.15 K, x1 = 0.4285	–	1043.6
[1], 318.15 K, x1 = 0.4635	–	1055.3
[1], 318.15 K, x1 = 0.5638	–	1084.7
[1], 318.15 K, x1 = 0.6072	–	1095.8
[1], 318.15 K, x1 = 0.6405	–	1103.5
[1], 318.15 K, x1 = 0.7096	–	1118.9
[1], 318.15 K, x1 = 0.8001	–	1136.9
[1], 318.15 K, x1 = 0.8522	–	1145.7
[1], 318.15 K, x1 = 0.9028	–	1154.2
[2], 298.15 K, x1 = 0.0139	0.163	–
[2], 298.15 K, x1 = 0.0242	0.236	–
[2], 298.15 K, x1 = 0.0278	0.285	–
[2], 298.15 K, x1 = 0.3397	2.34	–
[2], 298.15 K, x1 = 0.3707	2.35	–
[2], 298.15 K, x1 = 0.4045	2.31	–
[2], 298.15 K, x1 = 0.4278	2.27	–
[2], 298.15 K, x1 = 0.4642	2.22	–
[2], 298.15 K, x1 = 0.498	2.12	–
[2], 298.15 K, x1 = 0.5458	1.97	–
[2], 298.15 K, x1 = 0.5983	1.74	–
[2], 298.15 K, x1 = 0.6621	1.52	–
[2], 298.15 K, x1 = 0.7278	1.25	–
[2], 298.15 K, x1 = 0.7939	0.959	–
[2], 298.15 K, x1 = 0.8653	0.685	–
[2], 298.15 K, x1 = 0.9335	0.407	–
[2], 318.15 K, x1 = 0.0232	0.417	–
[2], 318.15 K, x1 = 0.052	0.776	–
[2], 318.15 K, x1 = 0.0852	1.16	–
[2], 318.15 K, x1 = 0.1233	1.55	–
[2], 318.15 K, x1 = 0.1608	1.92	–
[2], 318.15 K, x1 = 0.2011	2.23	–
[2], 318.15 K, x1 = 0.2044	2.31	–
[2], 318.15 K, x1 = 0.2311	2.44	–
[2], 318.15 K, x1 = 0.2591	2.56	–
[2], 318.15 K, x1 = 0.2896	2.65	–
[2], 318.15 K, x1 = 0.3223	2.73	–
[2], 318.15 K, x1 = 0.3585	2.77	–
[2], 318.15 K, x1 = 0.3982	2.78	–
[2], 318.15 K, x1 = 0.4404	2.74	–
[2], 318.15 K, x1 = 0.4891	2.65	–
[2], 318.15 K, x1 = 0.5441	2.5	–
[2], 318.15 K, x1 = 0.6073	2.25	–
[2], 318.15 K, x1 = 0.674	1.91	–
[2], 318.15 K, x1 = 0.7504	1.51	–
[2], 318.15 K, x1 = 0.8323	1.05	–
[2], 318.15 K, x1 = 0.9131	0.598	–

CCCC[n+]1cccc(C)c1.F[B-](F)(F)F [1-butyl-3-methylpyridinium tetrafluoroborate]
Conditions	mass density, [3] [kg/m3]	refractive index, [4]
298.15 K	1182.19	1.4473
318.15 K	1168.31	1.4422

CCCC[n+]1cccc(C)c1.F[B-](F)(F)F [1-butyl-3-methylpyridinium tetrafluoroborate] + O
Conditions	excess molar enthalpy [kJ/mol]	mass density [kg/m3]
[1], 298.15 K, x1 = 0.0182	–	1027.1
[1], 298.15 K, x1 = 0.0376	–	1050.3
[1], 298.15 K, x1 = 0.0567	–	1067.1
[1], 298.15 K, x1 = 0.0995	–	1093.7
[1], 298.15 K, x1 = 0.1608	–	1116.8
[1], 298.15 K, x1 = 0.2208	–	1131.4
[1], 298.15 K, x1 = 0.2975	–	1143.6
[1], 298.15 K, x1 = 0.3909	–	1154
[1], 298.15 K, x1 = 0.4861	–	1161.5
[1], 298.15 K, x1 = 0.5827	–	1167.2
[1], 298.15 K, x1 = 0.6761	–	1171.8
[1], 298.15 K, x1 = 0.8091	–	1176.6
[1], 298.15 K, x1 = 0.8376	–	1177.6
[1], 298.15 K, x1 = 0.8942	–	1179.4
[1], 318.15 K, x1 = 0.0466	–	1046.8
[1], 318.15 K, x1 = 0.1004	–	1080.4
[1], 318.15 K, x1 = 0.1523	–	1099.8
[1], 318.15 K, x1 = 0.1991	–	1112.4
[1], 318.15 K, x1 = 0.251	–	1122.2
[1], 318.15 K, x1 = 0.3038	–	1130.2
[1], 318.15 K, x1 = 0.4108	–	1141.5
[1], 318.15 K, x1 = 0.5062	–	1148.8
[1], 318.15 K, x1 = 0.5822	–	1153.3
[1], 318.15 K, x1 = 0.7042	–	1158.9
[1], 318.15 K, x1 = 0.7551	–	1160.9
[1], 318.15 K, x1 = 0.7904	–	1162.3
[1], 318.15 K, x1 = 0.8123	–	1163.2
[1], 318.15 K, x1 = 0.8988	–	1165.7
[1], 318.15 K, x1 = 0.918	–	1166.3
[2], 298.15 K, x1 = 0.006	0.078	–
[2], 298.15 K, x1 = 0.0137	0.167	–
[2], 298.15 K, x1 = 0.0226	0.266	–
[2], 298.15 K, x1 = 0.0328	0.374	–
[2], 298.15 K, x1 = 0.0448	0.489	–
[2], 298.15 K, x1 = 0.058	0.609	–
[2], 298.15 K, x1 = 0.0724	0.732	–
[2], 298.15 K, x1 = 0.0876	0.858	–
[2], 298.15 K, x1 = 0.1038	0.982	–
[2], 298.15 K, x1 = 0.1204	1.1	–
[2], 298.15 K, x1 = 0.1234	1.12	–
[2], 298.15 K, x1 = 0.1415	1.25	–
[2], 298.15 K, x1 = 0.1713	1.36	–
[2], 298.15 K, x1 = 0.1993	1.47	–
[2], 298.15 K, x1 = 0.2307	1.55	–
[2], 298.15 K, x1 = 0.2676	1.62	–
[2], 298.15 K, x1 = 0.3091	1.64	–
[2], 298.15 K, x1 = 0.3573	1.6	–
[2], 298.15 K, x1 = 0.4051	1.53	–
[2], 298.15 K, x1 = 0.4511	1.46	–
[2], 298.15 K, x1 = 0.5139	1.33	–
[2], 298.15 K, x1 = 0.6139	1.09	–
[2], 298.15 K, x1 = 0.7899	0.631	–
[2], 318.15 K, x1 = 0.0058	0.095	–
[2], 318.15 K, x1 = 0.0136	0.217	–
[2], 318.15 K, x1 = 0.0231	0.352	–
[2], 318.15 K, x1 = 0.0339	0.487	–
[2], 318.15 K, x1 = 0.0459	0.623	–
[2], 318.15 K, x1 = 0.0605	0.769	–
[2], 318.15 K, x1 = 0.0774	0.927	–
[2], 318.15 K, x1 = 0.0961	1.09	–
[2], 318.15 K, x1 = 0.1167	1.25	–
[2], 318.15 K, x1 = 0.1225	1.28	–
[2], 318.15 K, x1 = 0.1348	1.38	–
[2], 318.15 K, x1 = 0.1378	1.4	–
[2], 318.15 K, x1 = 0.1574	1.54	–
[2], 318.15 K, x1 = 0.1845	1.68	–
[2], 318.15 K, x1 = 0.2023	1.82	–
[2], 318.15 K, x1 = 0.2358	1.94	–
[2], 318.15 K, x1 = 0.2685	2.04	–
[2], 318.15 K, x1 = 0.3026	2.1	–
[2], 318.15 K, x1 = 0.3403	2.15	–
[2], 318.15 K, x1 = 0.3889	2.14	–
[2], 318.15 K, x1 = 0.4492	2.06	–
[2], 318.15 K, x1 = 0.5301	1.89	–
[2], 318.15 K, x1 = 0.6433	1.53	–
[2], 318.15 K, x1 = 0.8206	0.841	–
